# From US20150105252A1, “SUBSTITUTED PYRAZOLES AS HERBICIDES” (E I DU PONT DE NEMOURS AND COMPANY, priority 2013, published 2015)
# Tests used:
# [1] = system: buckwheat, wild; experiment: Test D postemergence; format: in vivo, Polygonum convolvulus; settings: scale 0 to 100
# Summary of the method: (§1)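 Pre: sown in silt loam, sprayed at once. Post: grown in peat-moss/vermiculite mix, sprayed at 1–4 leaves (2–18 cm). Formulation: non-phytotoxic solvent + surfactant. Read-out: visual 0–100 vs controls, 14–21 d.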
# [2] = system: buckwheat, wild; experiment: Test D preemergence; format: in vivo, Polygonum convolvulus; settings: Preemergence, scale 0 to 100
# Summary of the method: as §1
# [3] = system: barley, winter; experiment: Test D preemergence; format: in vivo, Hordeum vulgare; settings: Preemergence, scale 0 to 100
# Summary of the method: as §1
# [4] = system: barley, spring; experiment: Test D preemergence; format: in vivo, Hordeum vulgare; settings: Preemergence, scale 0 to 100
# Summary of the method: as §1
# [5] = system: barley, winter; experiment: Test D postemergence; format: in vivo, Hordeum vulgare; settings: scale 0 to 100
# Summary of the method: as §1
# [6] = system: barley, spring; experiment: Test D postemergence; format: in vivo, Hordeum vulgare; settings: scale 0 to 100
# Summary of the method: as §1
# [7] = system: foxtail, green; experiment: Test D preemergence; format: in vivo, Setaria viridis; settings: Preemergence, scale 0 to 100
# Summary of the method: as §1
# [8] = system: canarygrass; experiment: Test D preemergence; format: in vivo, Phalaris minor; settings: Preemergence, scale 0 to 100
# Summary of the method: as §1
# [9] = system: foxtail, green; experiment: Test D postemergence; format: in vivo, Setaria viridis; settings: scale 0 to 100
# Summary of the method: as §1
# [10] = system: kochia; experiment: Test D postemergence; format: in vivo, Kochia scoparia; settings: scale 0 to 100
# Summary of the method: as §1
# [11] = system: mustard, wild; experiment: Test D preemergence; format: in vivo, Sinapis arvensis; settings: Preemergence, scale 0 to 100
# Summary of the method: as §1
# [12] = system: chickweed; experiment: Test D preemergence; format: in vivo, Stellaria media; settings: Preemergence, scale 0 to 100
# Summary of the method: as §1
# [13] = system: pigweed; experiment: Test D postemergence; format: in vivo, Amaranthus retroflexus; settings: scale 0 to 100
# Summary of the method: as §1
# [14] = system: field violet; experiment: Test D preemergence; format: in vivo, Viola arvensis; settings: Preemergence, scale 0 to 100
# Summary of the method: as §1
# [15] = system: windgrass; experiment: Test D preemergence; format: in vivo, Apera spica-venti; settings: Preemergence, scale 0 to 100
# Summary of the method: as §1
# [16] = system: deadnettle; experiment: Test D preemergence; format: in vivo, Lamium amplexicaule; settings: Preemergence, scale 0 to 100
# Summary of the method: as §1
# [17] = system: wheat, spring; experiment: Test D preemergence; format: in vivo, Triticum aestivum; settings: Preemergence, scale 0 to 100
# Summary of the method: as §1
# [18] = system: wheat, winter; experiment: Test D preemergence; format: in vivo, Triticum aestivum; settings: Preemergence, scale 0 to 100
# Summary of the method: as §1
# [19] = system: field poppy; experiment: Test D preemergence; format: in vivo, Papaver rhoeas; settings: Preemergence, scale 0 to 100
# Summary of the method: as §1
# [20] = system: blackgrass; experiment: Test D postemergence; format: in vivo, Alopecurus myosuroides; settings: scale 0 to 100
# Summary of the method: as §1
smiles,measurement,setting,value
CCCc1cc(C(=O)NC(C)C)nn1Cc1cc(C(F)(F)F)nn1C [Compound 201],"Buckwheat, Wild plant response rating","[1]; Postemergence, 31 g ai/ha",50
same,"Buckwheat, Wild plant response rating","[1]; Postemergence, 125 g ai/ha",65
same,"Buckwheat, Wild plant response rating","[1]; Postemergence, 250 g ai/ha",70
same,"Buckwheat, Wild plant response rating","[1]; postemergence, 62 g ai/ha",50
same,"Plant response rating, Buckwheat, Wild",[2]; 31 g ai/ha,15
same,"Plant response rating, Buckwheat, Wild",[2]; 62 g ai/ha,100
same,"Plant response rating, Buckwheat, Wild",[2]; 250 g ai/ha,100
same,"Plant response rating, Barley, Winter",[3]; 31 g ai/ha,25
same,"Plant response rating, Barley, Winter",[3]; 62 g ai/ha,35
same,"Plant response rating, Barley, Winter",[3]; 125 g ai/ha,45
same,"Plant response rating, Barley, Winter",[3]; 250 g ai/ha,100
same,"Plant response rating, Barley, Spring",[4]; 31 g ai/ha,0
same,"Plant response rating, Barley, Spring",[4]; 62 g ai/ha,20
same,"Plant response rating, Barley, Spring",[4]; 125 g ai/ha,65
same,"Plant response rating, Barley, Spring",[4]; 250 g ai/ha,75
same,"Barley, Winter plant response rating","[5]; Postemergence, 31 g ai/ha",20
same,"Barley, Winter plant response rating","[5]; Postemergence, 125 g ai/ha",25
same,"Barley, Winter plant response rating","[5]; Postemergence, 250 g ai/ha",35
same,"Barley, Winter plant response rating","[5]; postemergence, 62 g ai/ha",20
same,"Barley, Spring plant response rating","[6]; Postemergence, 31 g ai/ha",25
same,"Barley, Spring plant response rating","[6]; Postemergence, 125 g ai/ha",25
same,"Barley, Spring plant response rating","[6]; Postemergence, 250 g ai/ha",40
same,"Barley, Spring plant response rating","[6]; postemergence, 62 g ai/ha",25
same,"Plant response rating, Foxtail, Green",[7]; 62 g ai/ha,100
same,"Plant response rating, Foxtail, Green",[7]; 125 g ai/ha,100
same,"Plant response rating, Foxtail, Green",[7]; 250 g ai/ha,100
same,"Plant response rating, Canarygrass",[8]; 31 g ai/ha,60
same,"Plant response rating, Canarygrass",[8]; 62 g ai/ha,100
same,"Plant response rating, Canarygrass",[8]; 125 g ai/ha,100
same,"Plant response rating, Canarygrass",[8]; 250 g ai/ha,100
same,"Foxtail, Green plant response rating","[9]; Postemergence, 31 g ai/ha",30
same,"Foxtail, Green plant response rating","[9]; Postemergence, 125 g ai/ha",40
same,"Foxtail, Green plant response rating","[9]; Postemergence, 250 g ai/ha",55
same,"Foxtail, Green plant response rating","[9]; postemergence, 62 g ai/ha",30
same,Kochia plant response rating,"[10]; Postemergence, 31 g ai/ha",75
same,Kochia plant response rating,"[10]; Postemergence, 125 g ai/ha",85
same,Kochia plant response rating,"[10]; Postemergence, 250 g ai/ha",85
same,Kochia plant response rating,"[10]; postemergence, 62 g ai/ha",75
same,"Plant response rating, Mustard, Wild",[11]; 62 g ai/ha,100
same,"Plant response rating, Mustard, Wild",[11]; 125 g ai/ha,100
same,"Plant response rating, Mustard, Wild",[11]; 250 g ai/ha,100
same,"Plant response rating, Chickweed",[12]; 31 g ai/ha,80
same,"Plant response rating, Chickweed",[12]; 62 g ai/ha,100
same,"Plant response rating, Chickweed",[12]; 125 g ai/ha,100
same,"Plant response rating, Chickweed",[12]; 250 g ai/ha,100
same,Pigweed plant response rating,"[13]; Postemergence, 31 g ai/ha",70
same,Pigweed plant response rating,"[13]; Postemergence, 125 g ai/ha",75
same,Pigweed plant response rating,"[13]; Postemergence, 250 g ai/ha",80
same,Pigweed plant response rating,"[13]; postemergence, 62 g ai/ha",70
same,"Plant response rating, Field Violet",[14]; 62 g ai/ha,100
same,"Plant response rating, Field Violet",[14]; 125 g ai/ha,100
same,"Plant response rating, Field Violet",[14]; 250 g ai/ha,100
same,"Plant response rating, Windgrass",[15]; 62 g ai/ha,100
same,"Plant response rating, Windgrass",[15]; 125 g ai/ha,100
same,"Plant response rating, Windgrass",[15]; 250 g ai/ha,100
same,"Plant response rating, Deadnettle",[16]; 31 g ai/ha,100
same,"Plant response rating, Deadnettle",[16]; 62 g ai/ha,100
same,"Plant response rating, Deadnettle",[16]; 125 g ai/ha,100
same,"Plant response rating, Deadnettle",[16]; 250 g ai/ha,100
same,"Plant response rating, Wheat, Spring",[17]; 62 g ai/ha,55
same,"Plant response rating, Wheat, Spring",[17]; 125 g ai/ha,75
same,"Plant response rating, Wheat, Spring",[17]; 250 g ai/ha,100
same,"Plant response rating, Wheat, Winter",[18]; 62 g ai/ha,40
same,"Plant response rating, Wheat, Winter",[18]; 125 g ai/ha,70
same,"Plant response rating, Wheat, Winter",[18]; 250 g ai/ha,95
same,"Plant response rating, Field Poppy",[19]; 62 g ai/ha,100
same,"Plant response rating, Field Poppy",[19]; 125 g ai/ha,100
same,"Plant response rating, Field Poppy",[19]; 250 g ai/ha,100
same,Blackgrass plant response rating,"[20]; Postemergence, 31 g ai/ha",25
same,Blackgrass plant response rating,"[20]; Postemergence, 125 g ai/ha",50
same,Blackgrass plant response rating,"[20]; Postemergence, 250 g ai/ha",65
same,Blackgrass plant response rating,"[20]; postemergence, 62 g ai/ha",25
